One series concerns GTPCH. Particulars: competes with GTP, a substrate for GTPCH (Gross and Levi 1992); cited from earlier work.
Another series relates to human GTPCH. As to the kind of experiment: GCH1 siRNA transfection of GCHtet-off and MCF7 cells, expression of GTPCH and phosphor-Akt. The format is cell-based. Particulars: 10 nM siRNA, Lipofactamine RNAiMAX, 48 hours. The procedure: GCHtet-off cells (described above) and MCF7 cells (4×10^5/well) were cultured in a 24-well plate and transfected with 10 nM of GCH1 siRNA (comprising the sequences of Seq ID Nos: 1 and 2) and scramble siRNA (SCR), respectively using Lipofactamine RNAiMAX. After 48 hours, the cells were harvested and the expression of human GTPCH, phosphor-Akt and GAPDH was determined. The results are illustrated in FIG. 8. A correlation between human GTPCH expression and phosphor-Akt was observed.

As for `Nc1cc(O)nc(N)n1` [DAHP, 2,4-diamino-6-hydroxypyrimidine], the GTPCH protein activity entry in the series on GTPCH is recorded as “inhibits GTPCH protein activity”.
Regarding “GCH1 siRNA: siRNA comprising the sequences of Seq ID Nos: 1 and 2, designed to reduce GTPCH expression (chain 1 CCUAAACGAUGCUAUAUUUTT; chain 2 AAAUAUAGCAUCGUUUAGGTT; chemistry not given here)”, in the series on human GTPCH, the Akt phosphorylation entry was “Reduction” and the GTPCH expression result was “Downregulated”.
